Assay: Color intensity E1% of cavernamine-L powder and its formulation
Type: physicochemical
Experimental: The dilution mixture was adjusted to pH 5 with Sodium Hydroxide 2 M. The cavernamine-L powder was added to the dilution mixture in a concentration of 0.5 g/L and mixed for 5 minutes. The colored solution was then frozen prior to lyophilzation. Diluted red powder was recovered and the color intensity of the formulated cavernamine-L was detected to be E1% (at 492 nm) of 2.2, compared to E1% (at 492 nm) of 220 of original pure cavernamine-L powder.

In the case of `C/C=C\C1=CC2=CC3=C(C(=O)C(C)CC)C(=O)OC3(C)C(=O)C2=CN1C(CC(C)C)C(=O)O` (stereo not drawn) [cis-cavernamine-L], the “color intensity E1% (at 492 nm)” value is reported as 220.
